From ChEMBL document CHEMBL1144508, “Inhibitory activity of stilbenes on Alzheimer's beta-amyloid fibrils in vitro” (Bioorg Med Chem, 2007) come the findings set out here.

One assay is filed under the species Homo sapiens. Briefly: (§1) Antiamyloidogenic activity assessed as inhibition of beta amyloid (25-35) fibril formation after 6 hrs.
The nature of assay [1]: as §1. On the set-up: species or system Homo sapiens.

Structures are written as SMILES. Calls of active or inactive are those of the source. The rule behind the calls is not given here.

With `O=c1oc2c(O)c(O)cc3c(=O)oc4c(O)c(O)cc1c4c23`, the outcome in the assay listed under Homo sapiens was inactive. As to `COc1cc(/C=C/C(=O)CC(=O)/C=C/c2ccc(O)c(OC)c2)ccc1O` [CURCUMIN], the EC50 in assay [1] amounted to 10 µM. Consider `OC[C@H]1O[C@@H](Oc2cc(O)cc(/C=C/c3ccc(O)cc3)c2)[C@H](O)[C@@H](O)[C@@H]1O` [PICEID], for which the concentration for a half-maximal effect (EC50) in assay [1] was 4.7 µM. Regarding `Oc1ccc(/C=C/c2cc(O)cc(O)c2)cc1` [RESVERATROL], the EC50 in assay [1] came to 5.6 µM.

A word on the EC50: it is the concentration giving half of the maximal effect.
